# Source: article PMC9864769, “Identification of Lignan Compounds as New 6-Phosphogluconate Dehydrogenase Inhibitors for Lung Cancer” (Metabolites, 2022)
# Biological target: T1, 6-phosphogluconate dehydrogenase (6-PGD) (Homo sapiens, UniProt P52209)
# T1 construct: native enzyme purified from human erythrocytes
# T1 sequence (P52209 1-483): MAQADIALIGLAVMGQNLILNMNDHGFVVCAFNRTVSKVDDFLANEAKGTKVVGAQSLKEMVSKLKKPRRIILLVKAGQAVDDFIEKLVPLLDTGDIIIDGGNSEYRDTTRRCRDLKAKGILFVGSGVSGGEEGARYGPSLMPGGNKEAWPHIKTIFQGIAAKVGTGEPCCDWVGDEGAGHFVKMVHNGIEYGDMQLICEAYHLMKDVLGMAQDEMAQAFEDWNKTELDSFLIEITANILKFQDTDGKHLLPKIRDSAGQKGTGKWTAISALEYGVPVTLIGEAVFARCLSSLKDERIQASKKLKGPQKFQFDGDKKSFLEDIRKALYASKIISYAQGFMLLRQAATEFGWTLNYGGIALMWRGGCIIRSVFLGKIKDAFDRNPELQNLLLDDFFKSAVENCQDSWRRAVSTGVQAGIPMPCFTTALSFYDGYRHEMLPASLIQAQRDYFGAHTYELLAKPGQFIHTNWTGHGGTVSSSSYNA
# Assay: enzyme activity assay (NADPH absorbance at […] nm) on 6-PGD purified from human erythrocytes; also A549 lysate assay
# Type: biochemical
# Details: read-out: % reduction of activity at 200 μg/mL
row,Structure (SMILES),inhibition at 200 µg/mL [%]
1,COc1cc([C@H]2Oc3c(OC)cc4ccc(=O)oc4c3O[C@@H]2CO)ccc1O [cleomiscosin A],70
2,COc1cc([C@H]2OC[C@H]3[C@@H]2CO[C@@H]3c2cc(OC)c(O)c(OC)c2)cc(OC)c1O [syringaresinol],76.3
